Results: paper PMC11793105, “A kalihinol analog disrupts apicoplast function and vesicular trafficking in P. falciparum malaria” (Science (New York, N.Y.), 2024)

Assays:
[1] = tested on: P. knowlesi YH1 rhesus erythrocyte infecting parasites; test: P. knowlesi in vitro IC50 assay (flow cytometry), rhesus erythrocytes; type: cell-based; conditions: Plasmodium knowlesi, in Macaca mulatta
Procedure: Fig. 5. In vivo and broad-spectrum antimalarial efficacy of MED6-189. (A) The in vivo efficacy of MED6-189 was evaluated in a humanized mouse model infected with P. falciparum (blue) compared with untreated controls (black). […] The graphs illustrate the logarithmic growth of parasites (y axis) in response to varying drug concentrations (x axis). Error bars represent standard deviations from two independent experiments conducted in triplicate. The regression line is derived from a nonlinear regression analysis (variable slope with four parameters, least squares fit). (C) Proposed mode of action of MED6-189 in P. falciparum–infected erythrocytes. […]
(§1) Detailed information on materials and methods is available in the supplementary materials. […] P. knowlesi assays were quantitatively measured by flow cytometry using SYBR Green I and Mitrotracker Deep Red, as previously described ([84], [85]), on a Beckman Coulter CytoFLEX. […]
(§2) P. falciparum in vitro SYBR green fluorescence-based assays The anti-malarial activity of individual analogues were evaluated in-vitro against P. falciparum 3D7 (MRA-102, drug […]
(§3) green-I based fluorescence assay. Parasite growth rate and stages of development were determined via microscopy through Giemsa-stained smears of the cultures. […]

[2] = tested on: P. falciparum W2 (MRA-157, chloroquine resistant); test: SYBR Green I growth inhibition assay, W2; type: cell-based, Plasmodium falciparum; conditions: early-ring stage, 72 h exposure
Procedure: (§4) Fig. 1. […] (B) SYBR Green–based dose response assays were conducted on early-ring stage parasites (6 hours after invasion). […] 3D7 WT (blue), NF54 (green), drug-resistant strains Dd2 (red), HB3 (black), W2 (gray), and D10-ACP-GFP (purple) lines (Sigmoidal, 4PL, X is concentration, n ≥ 3, nonlinear regression, CI: 95%). (C) Schematic diagram of the development of P. falciparum after two consecutive erythrocytic cycles. The time points at which MED6-189 was introduced are depicted in green. HPS, hours post synchronization. […] The images depict various developmental stages of the parasite’s intraerythrocytic life cycle. Bordered images represent time points when drug was first introduced (n = 3 biological replicates, P < 0.05).
as §1, §2, §3

[3] = tested on: P. falciparum NF54 (MRA-1000); test: SYBR Green I growth inhibition assay, NF54; type: cell-based, Plasmodium falciparum; conditions: early-ring stage, 72 h exposure
Procedure: as §4, §1, §2, §3

In the case of `[C-]#[N+][C@]1(C)CC[C@H]2[C@@H]([C@@H](C(C)C)CC[C@]2(C)[N+]#[C-])[C@H]1O` [MED6-189], the IC50 [1] is reported as 276 ± 22 nM, the IC50 ([2]; Plasmodium falciparum, W2, 72 h) is reported as 27 ± 5 nM and the IC50 [2] is reported as 26.7 nM. For the same compound, the IC50 ([3]; Plasmodium falciparum, NF54, 72 h) was 28 ± 5 nM and the IC50 [3] was 27 nM.
